Assays:
P-glycoprotein = biological target: T1, P-glycoprotein (Homo sapiens, UniProt P08183); test: P-glycoprotein substrate activity experiment (CC50 ratio MDCK-P-gp vs MDCK-WT); format: in vitro ADME; conditions: 72 hours, CellTiter-Glo (FIG. 4b)
T1 construct: host or cells: MDCKII-mdr1 (canine kidney MDCKII cells; MDCKII-wt as control)
Procedure: MDCKII-mdr1 and MDCKII-wt cells were purchased from the Netherlands Cancer Institute, NKI-AVL. The cells were cultivated in Dulbecco's modified essential medium (DMEM), supplemented with 10% FBS and 1% Penn-Strep, and used between passage 3-9. Cells were seeded at a density of 3×10^3 cells/well in 96-well tissue culture treated plates. After 4 hours to allow cells to attach, cells were treated with test compound in the presence or absence of the P-glycoprotein inhibitor Valspodar. The plates were incubated at 37° C., 5% CO2 for 72 hours and ATP was measured vialuminescence using CellTiter-Glo® reagent (Promega). (FIG. 4b)

advanced PDA = conditions: cited from earlier work
PDA tumors in KPC mice = test: KPC intervention/survival study; format: in vivo; conditions: KPC mice (FIGS. 9a, 9b)
Procedure: Tumor formation in KPC mice was monitored by weekly palpation until the detection of a mass. Upon positive palpation, the mass was monitored by twice weekly ultrasound until the tumor reached an enrollable size of 4-7 mm average diameter. Once enrollable, KPC mice were randomly enrolled into a treatment arm of the intervention study. Mice were treated with vehicle, Compound 1 (17 mg/kg, PO, b.i.w.), gemcitabine alone (100 mg/kg, IP, b.i.w.), or Compound 1+gemcitabine. Mice receiving Compound 1 also received gemcitabine vehicle (saline, IP, b.i.w.) at a volume (μL) of 50× body weight (g). Mice receiving gemcitabine also received Compound 1 vehicle (0.5% hydroxypropylmethylcellulose with 0.1% Tween80 (w/v), PO, b.i.w.) at a volume (μL) of 5.7× body weight (g). All drug and vehicle combinations were administered simultaneously.
Tumor ultrasonography and volume quantification were carried out as described in Sastra S A, Olive K P, Quantification of murine pancreatic tumors by high-resolution ultrasound, Methods Mol Biol 2013; 980:249-66. […]
To prepare samples for immunohistochemistry, tissues were first fixed overnight in 10% phosphate-buffered formalin and then stored in 70% ethanol for long-term storage. […] Next, antigen retrieval was carried out in an experimentally determined, antibody-specific antigen retrieval buffer (usually 10 mM citrate, pH 6.0 or 10 mM Tris, pH 10.0). […]

T1 sequence (P08183 whole entry): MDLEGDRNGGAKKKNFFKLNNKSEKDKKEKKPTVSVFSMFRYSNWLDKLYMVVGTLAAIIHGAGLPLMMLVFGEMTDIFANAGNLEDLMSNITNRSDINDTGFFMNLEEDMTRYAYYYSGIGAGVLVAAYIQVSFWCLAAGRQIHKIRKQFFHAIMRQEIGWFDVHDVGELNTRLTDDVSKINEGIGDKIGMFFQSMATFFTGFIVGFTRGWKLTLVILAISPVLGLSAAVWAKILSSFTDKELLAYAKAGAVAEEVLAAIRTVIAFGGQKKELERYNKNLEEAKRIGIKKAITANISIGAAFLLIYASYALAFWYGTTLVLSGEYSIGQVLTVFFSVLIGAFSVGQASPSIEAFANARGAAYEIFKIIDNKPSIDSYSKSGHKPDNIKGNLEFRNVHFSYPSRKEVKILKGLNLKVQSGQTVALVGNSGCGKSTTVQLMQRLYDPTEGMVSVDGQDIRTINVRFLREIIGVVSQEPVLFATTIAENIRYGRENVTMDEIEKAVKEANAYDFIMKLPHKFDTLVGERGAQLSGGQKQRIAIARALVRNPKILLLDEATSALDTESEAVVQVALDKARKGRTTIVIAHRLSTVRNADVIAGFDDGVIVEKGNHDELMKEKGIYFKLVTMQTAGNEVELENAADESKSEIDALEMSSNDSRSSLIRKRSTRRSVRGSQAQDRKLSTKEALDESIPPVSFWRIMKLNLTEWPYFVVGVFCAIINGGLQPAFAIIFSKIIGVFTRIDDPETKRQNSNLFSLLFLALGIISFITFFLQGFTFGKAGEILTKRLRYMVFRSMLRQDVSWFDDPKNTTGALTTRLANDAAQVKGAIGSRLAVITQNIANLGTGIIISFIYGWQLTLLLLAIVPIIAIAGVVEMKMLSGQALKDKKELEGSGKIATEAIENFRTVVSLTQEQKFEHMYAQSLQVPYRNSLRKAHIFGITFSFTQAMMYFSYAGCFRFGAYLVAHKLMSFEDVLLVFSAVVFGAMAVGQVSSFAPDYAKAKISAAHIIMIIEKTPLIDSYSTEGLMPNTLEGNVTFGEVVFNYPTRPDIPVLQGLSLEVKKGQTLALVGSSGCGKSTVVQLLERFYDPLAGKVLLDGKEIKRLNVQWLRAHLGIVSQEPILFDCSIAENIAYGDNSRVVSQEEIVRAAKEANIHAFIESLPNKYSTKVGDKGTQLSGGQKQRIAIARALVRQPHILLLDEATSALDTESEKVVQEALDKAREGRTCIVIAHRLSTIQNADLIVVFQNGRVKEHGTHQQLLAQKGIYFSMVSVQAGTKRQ

Q: For `CN(C)CCCN1c2ccccc2Sc2ccc(Cl)cc21` [chlorpromazine, reference compound], which “PGP substrate activity (ratio of CC50 values MDCK-P-gp vs MDCK-WT)” value (P-glycoprotein) is on record?
A: Its value is “do not function as a PGP substrate”.

Q: Which “additional survival benefit, average” value (advanced PDA; when combined with gemcitabine) does the source give for `C#Cc1cccc(Nc2ncnc3cc(OCCOC)c(OCCOC)cc23)c1` [Tarceva, erlotinib] here?
A: Its value is 10 days.

Q: For `Nc1ccn([C@@H]2O[C@H](CO)[C@@H](O)C2(F)F)c(=O)n1` [gemcitabine, reference compound], which “apoptotic cell population in stained tumor sections” value (PDA tumors in KPC mice) is on record?
A: The value was “induced apoptotic cell population”.

Q: And the extension of survival (advanced PDA; national standard-of-care therapy)?
A: The extension of survival was “modestly extends survival by a few weeks”.

Q: Which “PGP substrate activity (ratio of CC50 values MDCK-P-gp vs MDCK-WT)” value (P-glycoprotein) does the source give for `Cc1nc2cc(F)c(F)cc2n1-c1cncc(Nc2ccc(C(F)(F)F)cc2)n1` [Compound 2, 6-(5,6-difluoro-2-methyl-1H-benzo[d]imidazol-1-yl)-N-(4-(trifluoromethyl)phenyl)pyrazin-2-amine, reference compound] here?
A: The value was “do not function as a PGP substrate”.
